Values of other authors in patent US6034057A, “Peptide inhibitors of fibronectine” (Zeneca Limited, priority 1995, dated 2000).
Bridge positions count the residues as written; N and C are the ends. Ends that are not written are not given here. * marks the point of attachment. Acetyl(1-adamantyl) = O=C(CC12CC3CC(CC(C3)C1)C2)*

How the values were obtained:
αIIbβ IIIa = αIIbβ IIIa (Homo sapiens, UniProt P05106+P08514)
αvβ3 = αvβ3 (Homo sapiens, UniProt P05106+P06756)
fibronectin [1] = test system: fibronectin
fibronectin [2] = test system: fibronectin; remark: listed apart in the source
[3] = test system: 120 kDa chymotryptic fragment of fibronectin

Sequence of αvβ3 (P06756 31-889 limits assumed): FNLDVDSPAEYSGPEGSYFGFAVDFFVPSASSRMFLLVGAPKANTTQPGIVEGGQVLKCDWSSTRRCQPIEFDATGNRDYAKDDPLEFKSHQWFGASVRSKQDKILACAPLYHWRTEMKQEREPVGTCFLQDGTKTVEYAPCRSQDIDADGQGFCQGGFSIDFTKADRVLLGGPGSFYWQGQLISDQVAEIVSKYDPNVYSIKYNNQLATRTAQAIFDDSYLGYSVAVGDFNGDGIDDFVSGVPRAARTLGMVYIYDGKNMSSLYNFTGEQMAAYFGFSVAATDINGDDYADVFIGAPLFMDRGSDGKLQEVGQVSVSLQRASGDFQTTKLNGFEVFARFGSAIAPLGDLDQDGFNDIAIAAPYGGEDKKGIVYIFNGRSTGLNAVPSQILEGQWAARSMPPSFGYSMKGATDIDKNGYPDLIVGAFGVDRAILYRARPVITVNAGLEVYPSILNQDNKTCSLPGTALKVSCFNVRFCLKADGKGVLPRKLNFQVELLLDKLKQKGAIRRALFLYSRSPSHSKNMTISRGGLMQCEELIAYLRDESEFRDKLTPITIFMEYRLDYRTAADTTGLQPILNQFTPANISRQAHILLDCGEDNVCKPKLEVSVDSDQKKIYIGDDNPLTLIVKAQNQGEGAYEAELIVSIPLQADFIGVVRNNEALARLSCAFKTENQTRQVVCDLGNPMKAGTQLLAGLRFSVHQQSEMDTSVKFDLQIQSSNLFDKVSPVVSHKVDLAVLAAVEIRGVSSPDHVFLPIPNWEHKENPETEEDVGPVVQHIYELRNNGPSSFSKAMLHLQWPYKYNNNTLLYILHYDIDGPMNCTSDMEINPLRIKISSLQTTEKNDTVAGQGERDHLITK
Sequence of αvβ3 (P06756 891-1048 partner limits assumed): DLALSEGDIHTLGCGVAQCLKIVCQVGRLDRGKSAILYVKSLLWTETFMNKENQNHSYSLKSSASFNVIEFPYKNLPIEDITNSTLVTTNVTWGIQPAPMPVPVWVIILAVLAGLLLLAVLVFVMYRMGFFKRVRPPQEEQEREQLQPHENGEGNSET
Sequence of αvβ3 (P05106 27-788): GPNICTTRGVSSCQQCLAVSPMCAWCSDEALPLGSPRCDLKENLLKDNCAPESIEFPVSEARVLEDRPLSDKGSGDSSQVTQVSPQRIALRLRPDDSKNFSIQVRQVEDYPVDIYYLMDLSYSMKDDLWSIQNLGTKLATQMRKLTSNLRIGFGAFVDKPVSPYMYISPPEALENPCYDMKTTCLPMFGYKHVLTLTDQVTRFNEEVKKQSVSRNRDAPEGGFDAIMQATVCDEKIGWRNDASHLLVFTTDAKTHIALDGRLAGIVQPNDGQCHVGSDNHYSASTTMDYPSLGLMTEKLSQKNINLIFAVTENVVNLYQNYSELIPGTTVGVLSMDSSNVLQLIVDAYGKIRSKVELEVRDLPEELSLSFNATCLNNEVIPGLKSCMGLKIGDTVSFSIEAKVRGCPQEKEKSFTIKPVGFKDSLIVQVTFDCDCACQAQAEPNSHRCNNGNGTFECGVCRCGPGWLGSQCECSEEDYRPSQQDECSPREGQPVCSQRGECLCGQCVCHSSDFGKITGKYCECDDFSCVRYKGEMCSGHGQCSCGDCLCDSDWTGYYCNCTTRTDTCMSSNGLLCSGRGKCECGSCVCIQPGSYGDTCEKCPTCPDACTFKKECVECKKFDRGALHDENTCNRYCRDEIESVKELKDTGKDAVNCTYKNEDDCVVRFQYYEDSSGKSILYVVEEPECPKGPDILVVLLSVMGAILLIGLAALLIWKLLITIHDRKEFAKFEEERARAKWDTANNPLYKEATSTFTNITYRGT

Substance	inhibition of function in αIIbβ IIIa-dependent assay (αIIbβ IIIa)	inhibition of function in αvβ3-dependent assay (αvβ3)	inhibition of binding of Jurkat cells to fibronectin coated plates (fibronectin [1])	inhibition of leukocyte cell adhesion to fibronectin (fibronectin [2])	inhibition of binding to the 120 kDa chymotryptic fragment of fibronectin [3]
1-adamantaneacetyl-Cys-Gly-Arg-Gly-Asp-Ser-Pro-Cys ({Acetyl(1-adamantyl)}-CGRGDSPC; disulfide 1-8 (inferred))	inhibited function	inhibited function	inhibited the binding of Jurkat cells to fibronectin coated plates	–	–
Arg-Cys-Asp-thioproline-Cys	–	–	–	inhibitor of leukocyte cell adhesion to fibronectin	inhibited the binding to the 120 kDa chymotryptic fragment of fibronectin
